Here are results for 43 compounds from patent US7183278B1 (priority 1998, dated 2007).

Each structure is given as a SMILES string.

The subject of the test is rice blast fungi (Pyricularia oryze). The experiment in a line: whole plant or invertebrate. The format is in vivo. The note with it: 144 h, read-out: protective value.

Take `COc1ccnc(C(=O)Nc2ccc3c(c2)OCCO3)c1O` [Example 51, 3-Hydroxy-4-methoxy-(3′,4′-ethylenedioxy)picolinanilide]: the pest or weed control at 100 ppm is 80 to 100%.
Turning to `COc1ccnc(C(=O)Nc2ccc(OCc3ccccc3)cc2)c1O` [Example 39, 3-Hydroxy-4-methoxy-4′-benzyloxypicolinanilide], the pest or weed control at 100 ppm fell in the range of 80 to 100%.
`COc1ccnc(C(=O)Nc2ccc(C)cc2)c1O` [Example 123, 3-Hydroxy-4-methoxy-4′-methylpicolinanilide]: the pest or weed control at 100 ppm lay in the range of 80 to 100%.
For `COc1ccnc(C(=O)Nc2cccc(Oc3ccccc3)c2)c1O` [Example 11, 3-Hydroxy-4-methoxy-3′-phenoxypicolinanilide] the value was 80 to 100%; for `COc1ccnc(C(=O)NC2CCCCCCCCCCC2)c1O` [Example 42, 3-Hydroxy-4-methoxy-N-cyclododecylpicolinamide], 80 to 100%.
With `COc1ccnc(C(=O)Nc2ccc(F)cc2)c1O` [Example 120, 3-Hydroxy-4-methoxy-4′-fluoropicolinanilide], the pest or weed control at 100 ppm fell in the range of 80 to 100%.
Turning to `CCC(C)NC(=O)c1nccc(OC)c1O` (stereo not shown) [Example 82, 3-Hydroxy-4-methoxy-N-(sec-butyl)picolinamide], the pest or weed control at 100 ppm is 80 to 100%.
As for `CCCCCCNC(=O)c1nccc(OC)c1O` [Example 83, 3-Hydroxy-4-methoxy-N-(n-hexyl)picolinamide], the pest or weed control at 100 ppm lay in the range of 80 to 100%.
As for `COc1ccnc(C(=O)Nc2cc(C(C)(C)C)cc(C(C)(C)C)c2)c1O` [Example 38, 3-Hydroxy-4-methoxy-3′,5′-di-t-butylpicolinanilide], the pest or weed control at 100 ppm fell in the range of 80 to 100%.
For the compound `COc1ccnc(C(=O)Nc2ccc(Oc3ccccc3)c(C)c2)c1O` [Example 23, 3-Hydroxy-4-methoxy-3′-methyl-4′-phenoxypicolinanilide], the pest or weed control at 100 ppm lay within 80 to 100%.
Turning to `COc1ccnc(C(=O)Nc2ccccc2Oc2ccccc2)c1O` [Example 12, 3-Hydroxy-4-methoxy-2′-phenoxypicolinanilide], the pest or weed control at 100 ppm is 80 to 100%.
`COc1ccnc(C(=O)NC(C)(C)c2ccccc2)c1O` [Example 70, 3-Hydroxy-4-methoxy-N-(1′-methyl-1′-phenylethyl)picolinamide]: the pest or weed control at 100 ppm fell in the range of 80 to 100%.
For `COc1ccnc(C(=O)Nc2ccccc2)c1O` [Example 60, 3-Hydroxy-4-methoxypicolinanilide] the value was 80 to 100%; for `COc1ccnc(C(=O)Nc2ccc(Oc3ccccc3)c(Cl)c2)c1O` [Example 21, 3-Hydroxy-4-methoxy-3′-chloro-4′-phenoxypicolinanilide], 80 to 100%; for `COc1ccnc(C(=O)Nc2ccc(CC(C)(C)C)cc2)c1O` [Example 125, 3-Hydroxy-4-methoxy-4′-neopentylpicolinanilide], 80 to 100%.
For the compound `COc1ccnc(C(=O)NCCC2CCCCC2)c1O` [Example 63, 3-Hydroxy-4-methoxy-N-(2′-cyclohexylethyl)picolinamide], the pest or weed control at 100 ppm lay within 80 to 100%.
For `COc1ccnc(C(=O)Nc2ccc(C(F)(F)F)cc2)c1O` [Example 115, 3-Hydroxy-4-methoxy-4′-trifluoromethylpicolinanilide] the value was 80 to 100%.
For `COc1ccnc(C(=O)NC2CCCCC2)c1O` [Example 59, 3-Hydroxy-4-methoxy-N-cyclohexylpicolinamide] the value was 80 to 100%.
`COc1ccnc(C(=O)Nc2ccc(Cc3ccccc3)cc2)c1O` [Example 13, 3-Hydroxy-4-methoxy-4′-benzylpicolinanilide]: the pest or weed control at 100 ppm lay in the range of 80 to 100%.
As to `COc1ccnc(C(=O)Nc2ccc(OC(F)(F)F)cc2)c1O` [Example 116, 3-Hydroxy-4-methoxy-4′-trifluoromethoxypicolinanilide], the pest or weed control at 100 ppm was 80 to 100%.
Regarding `COc1ccnc(C(=O)Nc2cc(F)cc(F)c2)c1O` [Example 122, 3-Hydroxy-4-methoxy-3′,5′-difluoropicolinanilide], the pest or weed control at 100 ppm is 80 to 100%.
In the case of `CCCCCCCCNC(=O)c1nccc(OC)c1O` [Example 86, 3-Hydroxy-4-methoxy-N-(n-octyl)picolinamide], the pest or weed control at 100 ppm fell in the range of 80 to 100%.
As for `O=C(Nc1ccc(Oc2ccccc2)cc1)c1ncccc1O` [Example 1, 3-Hydroxy-4′-phenoxypicolinanilide], the pest or weed control at 100 ppm lay in the range of 80 to 100%.
The same measure for `COc1ccnc(C(=O)Nc2ccccn2)c1O` [Example 126, 3-Hydroxy-4-methoxy-N-(2-pyridyl)picolinamide]: 80 to 100%; for `COc1ccnc(C(=O)Nc2ccc(Cl)cc2)c1O` [Example 61, 3-Hydroxy-4-methoxy-4′-chloropicolinanilide]: 80 to 100%.
As for `COc1ccnc(C(=O)NCCC2=CCCCC2)c1O` [Example 53, 3-Hydroxy-4-methoxy-N-(2′-(1-cyclohexenyl)ethyl)picolinamide], the pest or weed control at 100 ppm is 80 to 100%.
For `COc1ccnc(C(=O)Nc2ccc(C)cc2F)c1O` [Example 121, 3-Hydroxy-4-methoxy-2′-fluoro-4′-methylpicolin-anilide] the value was 80 to 100%; for `COc1ccnc(C(=O)Nc2ccc(Oc3ccccc3)c(C(F)(F)F)c2)c1O` [Example 22, 3-Hydroxy-4-methoxy-4′-phenoxy-3′-trifluoromethylpicolinanilide], 80 to 100%; for `COc1ccnc(C(=O)Nc2ccc(Oc3ccccc3)cc2)c1O` [Example 9, 3-Hydroxy-4-methoxy-4′-phenoxypicolinanilide], 80 to 100%.
With `COc1ccnc(C(=O)NCCC(C)(C)C)c1O` [Example 88, 3-Hydroxy-4-methoxy-N-(3′,3′-dimethylbutyl)picolinamide], the pest or weed control at 100 ppm is 80 to 100%.
Turning to `COc1ccnc(C(=O)NC23CC4CC(CC(C4)C2)C3)c1O` [Example 45, 3-Hydroxy-4-methoxy-N-(1-adamantyl)picolinamide], the pest or weed control at 100 ppm was 80 to 100%.
Take `COc1ccnc(C(=O)NC2CCC(C)CC2)c1O` (stereo not shown) [Example 78, 3-Hydroxy-4-methoxy-N-(4′-methylcyclohexyl)picolinamide]: the pest or weed control at 100 ppm lay in the range of 80 to 100%.
On to `COc1ccnc(C(=O)Nc2c(C)cc(Oc3ccccc3)cc2C)c1O` [Example 55, 3-Hydroxy-4-methoxy-2′,6′-dimethyl-4′-phenoxypicolinanilide], for which the pest or weed control at 100 ppm was 80 to 100%.
On to `COc1ccnc(C(=O)NCc2ccc(Oc3ccccc3)cc2)c1O` [Example 71, 3-Hydroxy-4-methoxy-N-(4′-phenoxybenzyl)picolinamide], for which the pest or weed control at 100 ppm was in the range of 80 to 100%.
For `COc1ccnc(C(=O)NC2CCCC2)c1O` [Example 79, 3-Hydroxy-4-methoxy-N-cyclopentylpicolinamide] the value was 80 to 100%; for `COc1ccnc(C(=O)NC(C)c2ccccc2)c1O` (stereo not shown) [Example 69, 3-Hydroxy-4-methoxy-N-(1′-phenylethyl)picolinamide], 80 to 100%.
For the compound `COc1ccnc(C(=O)NC2CCCCCC2)c1O` [Example 57, 3-Hydroxy-4-methoxy-N-cycloheptylpicolinamide], the pest or weed control at 100 ppm is 80 to 100%.
For `COc1ccnc(C(=O)NC2CCC2)c1O` [Example 81, 3-Hydroxy-4-methoxy-N-cyclobutylpicolinamide] the value was 80 to 100%.
Consider `COc1ccnc(C(=O)Nc2ccc(C3CCCCC3)cc2)c1O` [Example 49, 3-Hydroxy-4-methoxy-4′-cyclohexylpicolinanilide], for which the pest or weed control at 100 ppm lay within 80 to 100%.
On to `COc1ccnc(C(=O)NCC2CCCCC2)c1O` [Example 75, 3-Hydroxy-4-methoxy-N-(cyclohexylmethyl)picolinamide], for which the pest or weed control at 100 ppm is 80 to 100%.
For `COc1ccnc(C(=O)Nc2ccc(C(C)(C)C)cc2)c1O` [Example 114, 3-Hydroxy-4-methoxy-4′-t-butylpicolinanilide], the pest or weed control at 100 ppm lay within 80 to 100%.
For `COc1ccnc(C(=O)NC2CCCCCCC2)c1O` [Example 43, 3-Hydroxy-4-methoxy-N-cyclooctylpicolinamide] the value was 80 to 100%; for `COc1ccnc(C(=O)NC(C)c2cccc3ccccc23)c1O` (stereo not shown) [Example 30, 3-Hydroxy-4-methoxy-N-(1′-(1-naphthyl)ethyl)picolinamide], 80 to 100%.
